Data published in patent US7091202B2, “4-arylspirocycloalkyl-2-aminopyrimidine carboxamide KCNQ potassium channel modulators” (Bristol-Myers Squibb Company, priority 2004, dated 2006).

Target: T1, hQ23 (HEK-293 cell line stably transfected with one of the members of the KCNQ family) (Homo sapiens, UniProt O43525+O43526)
T1 construct: expressed in transfected cells; host or cells: HEK-293, stably transfected
Test: Thallium flux assay for KCNQ channel blockers (FLIPR, BTC dye)
Assay type: cell-based
Conditions: Table 2; thallium flux, HEK-293
Experimental: Thallium Flux Assay for KCNQ channel blockers. Approximately 20,000 cells/well of an HEK-293 cell line stably transfected with one of the members of the KCNQ family were plated into clear-bottom, black-walled, poly-D-lysine coated, 384 well assay plates in 20 μl/well of low chloride plating medium. Low chloride plating medium was composed of the following: sodium gluconate, 109 mM; potassium gluconate, 5.4 mM; hemi-calcium gluconate, 3.6 mM; magnesium sulfate, 0.8 mM; sodium bicarbonate, 26.2 mM; sodium phosphate monobasic, 1.2 mM; glutamine, 2 mM; glucose, 5 mM; HEPES (pH 7.3) 10 mM, 10× concentration of vitamins (Gibco/LifeTechnologies catalog #11120-052) and 1× concentration of amino acids (Gibco/LifeTechnologies catalog #11130-051).
Following overnight incubation in a 5% CO2 incubator at 37° C., the cells in the plates were loaded with 20 μl/well of a dye loading solution containing the acetomethoxy ester of the thallium-sensitive fluorescent dye BTC, BTC-AM (2 μM) and pluronic acid (0.02% w/v) in chloride free assay buffer. Chloride free assay buffer was composed of the following: sodium gluconate, 140 mM; potassium gluconate, 2.5 mM; hemi-calcium gluconate, 6 mM; hemi-magnesium gluconate, 2 mM; glucose, 5 mM; HEPES (pH 7.3), 10 mM.
Following incubation in the dye loading solution for from 45–90 min at room temperature, the dye loading solution was removed by aspiration and replaced with 40 μl/well of chloride free assay buffer.
Prior to addition to cell plates, test compound and standard compounds were dissolved in DMSO to 3 mM concentration. Compounds were then diluted from the 3 mM stock to 100-fold over the final assay concentration in DMSO. Finally, compounds in DMSO were diluted from 100-fold over the final assay concentration to 5-fold over the final assay concentration in chloride free assay buffer.
Ten μl/well of compounds at 5-fold over the final assay concentration were then added to the cell plates. This represents a 1:5 dilution, yielding the final test concentration. The wells used for test compounds were A1–P20. Wells A21–P22 contained a standard ‘blocker’ and a fully efficacious concentration (positive control). Wells A23–P24 contained chloride free assay buffer containing 1% DMSO (negative control).
Following addition of test compounds, the plates were loaded onto the Molecular Devices FLIPR. The 488 nm line of the argon laser was used to excite the BTC and the emission filter was a 540(+/−30) nm. Images were collected at 1 Hz. Ten seconds of baseline were collected and then the FLIPR was used to add 13 μl/well of a stimulus buffer composed of Tl2SO4, 25 mM; sodium gluconate, 30 mM; potassium sulfate, 50 mM; hemi-calcium gluconate, 6 mM; hemi-magnesium gluconate, 2 mM; glucose, 5 mM; HEPES (pH 7.3), 10 mM in chloride free assay buffer. Images were collected for an additional 60 seconds.
For data analysis, the amplitude of the average of the negative controls was subtracted from all wells. The amplitudes of the test compounds were then compared to the value of four standard deviations of the negative control wells. The lowest concentration of a test compound sufficient to generate a signal amplitude greater than or equal to four standard deviations from the amplitude of the negative controls was defined as the minimal active concentration.
For generating IC50 values, compounds were serially diluted in 1:3 volume increments to produce a 10 point concentration series. IC50 values were calculated by fitting the resulting amplitudes to a single-site logistic equation. IC50 was defined as the concentration of test compound required to yield 50% of the response of the positive control.

T1 sequence (O43526 whole entry): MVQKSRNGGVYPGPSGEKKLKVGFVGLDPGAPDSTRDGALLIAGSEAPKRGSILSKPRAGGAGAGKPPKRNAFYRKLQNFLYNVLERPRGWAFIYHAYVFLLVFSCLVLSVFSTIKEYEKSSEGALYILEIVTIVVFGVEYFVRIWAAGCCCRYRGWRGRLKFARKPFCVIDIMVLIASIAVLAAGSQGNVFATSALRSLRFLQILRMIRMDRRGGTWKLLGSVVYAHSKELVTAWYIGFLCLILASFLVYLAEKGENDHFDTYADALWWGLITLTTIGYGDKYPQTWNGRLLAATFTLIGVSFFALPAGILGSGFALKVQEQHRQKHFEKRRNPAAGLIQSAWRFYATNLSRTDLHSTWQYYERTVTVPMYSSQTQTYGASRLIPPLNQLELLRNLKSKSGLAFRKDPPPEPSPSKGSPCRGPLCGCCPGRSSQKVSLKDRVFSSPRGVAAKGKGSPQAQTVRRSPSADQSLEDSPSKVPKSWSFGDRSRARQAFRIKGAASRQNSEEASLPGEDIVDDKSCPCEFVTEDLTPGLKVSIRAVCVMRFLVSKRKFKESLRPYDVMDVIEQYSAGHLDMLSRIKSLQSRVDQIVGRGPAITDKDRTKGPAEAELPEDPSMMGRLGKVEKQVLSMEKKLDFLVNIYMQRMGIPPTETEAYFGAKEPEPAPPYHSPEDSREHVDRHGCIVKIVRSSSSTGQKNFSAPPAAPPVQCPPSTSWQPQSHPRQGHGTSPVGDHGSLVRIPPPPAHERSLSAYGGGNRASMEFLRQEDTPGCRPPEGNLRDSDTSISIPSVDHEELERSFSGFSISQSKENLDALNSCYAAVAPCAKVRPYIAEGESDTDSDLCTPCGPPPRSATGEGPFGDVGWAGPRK
T1 sequence (O43525 whole entry): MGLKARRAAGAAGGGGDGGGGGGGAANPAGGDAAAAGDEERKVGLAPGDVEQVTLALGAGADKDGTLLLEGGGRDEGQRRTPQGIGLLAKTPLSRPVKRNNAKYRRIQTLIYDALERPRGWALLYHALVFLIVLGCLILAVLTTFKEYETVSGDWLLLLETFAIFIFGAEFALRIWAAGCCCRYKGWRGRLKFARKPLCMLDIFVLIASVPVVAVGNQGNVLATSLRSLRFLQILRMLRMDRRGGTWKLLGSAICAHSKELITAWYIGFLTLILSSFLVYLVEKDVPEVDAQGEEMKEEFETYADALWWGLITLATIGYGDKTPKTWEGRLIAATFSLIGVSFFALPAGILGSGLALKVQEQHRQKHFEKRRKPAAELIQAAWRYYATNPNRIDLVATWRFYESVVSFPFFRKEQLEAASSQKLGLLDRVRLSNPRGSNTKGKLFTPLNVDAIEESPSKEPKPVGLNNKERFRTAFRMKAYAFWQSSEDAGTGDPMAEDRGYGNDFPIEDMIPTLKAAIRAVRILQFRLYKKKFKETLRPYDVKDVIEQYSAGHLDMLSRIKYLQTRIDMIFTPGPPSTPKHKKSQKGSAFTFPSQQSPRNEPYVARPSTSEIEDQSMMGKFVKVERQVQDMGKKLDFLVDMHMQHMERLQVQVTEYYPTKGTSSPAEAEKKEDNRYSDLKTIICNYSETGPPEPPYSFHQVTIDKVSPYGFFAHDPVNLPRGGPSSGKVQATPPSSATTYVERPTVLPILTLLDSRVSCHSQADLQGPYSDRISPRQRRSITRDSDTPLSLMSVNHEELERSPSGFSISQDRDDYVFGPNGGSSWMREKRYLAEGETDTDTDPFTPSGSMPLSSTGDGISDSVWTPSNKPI

EC50 [nM] | Structure (SMILES)
673 | CC1CCCN(c2ncc(C(=O)NC(C)c3ccc(F)cc3)c(C3(c4ccccc4)CC3)n2)C1 (stereo not drawn) [Example 50, 5-pyrimidinecarboxamide, N-[1-(4-fluorophenyl)ethyl]-2-(3-methyl-1-piperidinyl)-4-(1-phenylcyclopropyl)-]
672 | CC1CCN(c2ncc(C(=O)NC(C)c3ccc(F)cc3)c(C3(c4ccccc4)CC3)n2)CC1 (stereo not drawn) [Example 51, 5-pyrimidinecarboxamide, N-[1-(4-fluorophenyl)ethyl]-2-(4-methyl-1-piperidinyl)-4-(1-phenylcyclopropyl)-]

Same assay, conditions: Table 3; thallium flux, HEK-293

Structure (SMILES) | EC50 [nM]
CCC(C)Nc1ncc(C(=O)N(CC)CC)c(C2(c3ccc(Cl)cc3)CCC2)n1 (stereo not drawn) [Example 52, 5-pyrimidinecarboxamide, 4-[1-(4-chlorophenyl)cyclobutyl]-N,N-diethyl-2-[(1-methylpropyl)amino]-] | 211
CCN(CC)C(=O)c1cnc(NCCN(C)C)nc1C1(c2ccc(Cl)cc2)CCC1 [Example 53, 5-pyrimidinecarboxamide, 4-[1-(4-chlorophenyl)cyclobutyl]-2-[[2-(dimethylamino)ethyl]amino]-N,N-diethyl-] | 558
CN(C)CCNc1ncc(C(=O)N2CCc3ccccc3C2)c(C2(c3ccc(Cl)cc3)CCC2)n1 [Example 54, isoquinoline, 2-[[4-[1-(4-chlorophenyl)cyclobutyl]-2-[[2-(dimethylamino)ethyl]amino]-5-pyrimidinyl]carbonyl]-1,2,3,4-tetrahydro-] | 475
CN(C)CCNc1ncc(C(=O)N(C)CCc2ccccc2)c(C2(c3ccc(Cl)cc3)CCC2)n1 [Example 55, 5-pyrimidinecarboxamide, 4-[1-(4-chlorophenyl)cyclobutyl]-2-[[2-(dimethylamino)ethyl]amino]-N-methyl-N-(2-phenylethyl)-] | 321
O=C(NCc1ccc2c(c1)OCO2)c1cnc(N2CCCC2)nc1C1(c2ccc(Cl)cc2)CCC1 [Example 56, 5-pyrimidinecarboxamide, N-(1,3-benzodioxol-5-ylmethyl)-4-[1-(4-chlorophenyl)cyclobutyl]-2-(1-pyrrolidinyl)-] | 719
CN1CCN(c2ncc(C(=O)NCc3ccc4c(c3)OCO4)c(C3(c4ccc(Cl)cc4)CCC3)n2)CC1 [Example 57, 5-pyrimidinecarboxamide, N-(1,3-benzodioxol-5-ylmethyl)-4-[1-(4-chlorophenyl)cyclobutyl]-2-(4-methyl-1-piperazinyl)-] | 745
CC1CCN(c2ncc(C(=O)NCc3ccc4c(c3)OCO4)c(C3(c4ccc(Cl)cc4)CCC3)n2)CC1 [Example 58, 5-pyrimidinecarboxamide, N-(1,3-benzodioxol-5-ylmethyl)-4-[1-(4-chlorophenyl)cyclobutyl]-2-(4-methyl-1-piperidinyl)-] | 90
CCC(C)Nc1ncc(C(=O)NCc2ccc3c(c2)OCO3)c(C2(c3ccc(Cl)cc3)CCC2)n1 (stereo not drawn) [Example 59, 5-pyrimidinecarboxamide, N-(1,3-benzodioxol-5-ylmethyl)-4-[1-(4-chlorophenyl)cyclobutyl]-2-[(1-methylpropyl)amino]-] | 405
O=C(NCc1cccc2ccccc12)c1cnc(NC2CC2)nc1C1(c2ccc(Cl)cc2)CCC1 [Example 60, 5-pyrimidinecarboxamide, 4-[1-(4-chlorophenyl)cyclobutyl]-2-(cyclopropylamino)-N-(1-naphthalenylmethyl)-] | 614
O=C(NCc1cccc2ccccc12)c1cnc(N2CCCC2)nc1C1(c2ccc(Cl)cc2)CCC1 [Example 61, 5-pyrimidinecarboxamide, 4-[1-(4-chlorophenyl)cyclobutyl]-N-(1-naphthalenylmethyl)-2-(1-pyrrolidinyl)-] | 79
CC1CCCN(c2ncc(C(=O)NCc3cccc4ccccc34)c(C3(c4ccc(Cl)cc4)CCC3)n2)C1 (stereo not drawn) [Example 62, 5-pyrimidinecarboxamide, 4-[1-(4-chlorophenyl)cyclobutyl]-2-(3-methyl-1-piperidinyl)-N-(1-naphthalenylmethyl)-] | 39

Further lines, results first:

EC50 [nM] | Structure (SMILES)
14 | CC1CCCN(c2ncc(C(=O)NCc3ccc(Cl)cc3Cl)c(C3(c4ccc(Cl)cc4)CCC3)n2)C1 (stereo not drawn) [Example 63, 5-pyrimidinecarboxamide, 4-[1-(4-chlorophenyl)cyclobutyl]-N-[(2,4-dichlorophenyl)methyl]-2-(3-methyl-1-piperidinyl)-]
34 | CC1CCN(c2ncc(C(=O)NCc3ccc(Cl)cc3Cl)c(C3(c4ccc(Cl)cc4)CCC3)n2)CC1 [Example 64, 5-pyrimidinecarboxamide, 4-[1-(4-chlorophenyl)cyclobutyl]-N-[(2,4-dichlorophenyl)methyl]-2-(4-methyl-1-piperidinyl)-]
56 | CC1CCC(Nc2ncc(C(=O)NCc3ccc(F)cc3F)c(C3(c4ccc(Cl)cc4)CCC3)n2)CC1 (stereo not drawn) [Example 65, 5-pyrimidinecarboxamide, 4-[1-(4-chlorophenyl)cyclobutyl]-N-[(2,4-difluorophenyl)methyl]-2-[(4-methylcyclohexyl)amino]-]
10 | CC1CCCN(c2ncc(C(=O)NCc3cc(F)cc(C(F)(F)F)c3)c(C3(c4ccc(Cl)cc4)CCC3)n2)C1 (stereo not drawn) [Example 66, 5-pyrimidinecarboxamide, 4-[1-(4-chlorophenyl)cyclobutyl]-N-[[3-fluoro-5-(trifluoromethyl)phenyl]methyl]-2-(3-methyl-1-piperidinyl)-]
10 | CC1CCN(c2ncc(C(=O)NCc3cc(F)cc(C(F)(F)F)c3)c(C3(c4ccc(Cl)cc4)CCC3)n2)CC1 [Example 67, 5-pyrimidinecarboxamide, 4-[1-(4-chlorophenyl)cyclobutyl]-N-[[3-fluoro-5-(trifluoromethyl)phenyl]methyl]-2-(4-methyl-1-piperidinyl)-]
128 | CC1CCCN(c2ncc(C(=O)NC(C)c3ccc(F)cc3)c(C3(c4ccc(Cl)cc4)CCC3)n2)C1 (stereo not drawn) [Example 68, 5-pyrimidinecarboxamide, 4-[1-(4-chlorophenyl)cyclobutyl]-N-[1-(4-fluorophenyl)ethyl]-2-(3-methyl-1-piperidinyl)-]

Same assay, conditions: hQ23 cells, thallium flux

EC50 [nM] | Structure (SMILES)
778 | CN(Cc1ccccc1)C(=O)c1cnc(N2CCCC2)nc1C1(c2ccccc2)CCCC1 [Example 69, 5-pyrimidinecarboxamide, N-methyl-4-(1-phenylcyclopentyl)-N-(phenylmethyl)-2-(1-pyrrolidinyl)-]
270 | CC1CCN(c2ncc(C(=O)N(C)Cc3ccccc3)c(C3(c4ccccc4)CCCC3)n2)CC1 [Example 70, 5-pyrimidinecarboxamide, N-methyl-2-(4-methyl-1-piperidinyl)-4-(1-phenylcyclopentyl)-N-(phenylmethyl)-]
718 | CN(Cc1ccccc1)C(=O)c1cnc(NC2CCCC2)nc1C1(c2ccccc2)CCCC1 [Example 71, 5-pyrimidinecarboxamide, 2-(cyclopentylamino)-N-methyl-4-(1-phenylcyclopentyl)-N-(phenylmethyl)-]
576 | CCN(CC)C(=O)c1cnc(NC2CCC(C)CC2)nc1C1(c2ccccc2)CCCC1 (stereo not drawn) [Example 72, 5-pyrimidinecarboxamide,N,N-diethyl-2-[(4-methylcyclohexyl)amino]-4-(1-phenylcyclopentyl)-]
798 | CC1CCC(Nc2ncc(C(=O)N3CCc4ccccc4C3)c(C3(c4ccccc4)CCCC3)n2)CC1 (stereo not drawn) [Example 73, isoquinoline, 1,2,3,4-tetrahydro-2-[[2-[(4-methylcyclohexyl)amino]-4-(1-phenylcyclopentyl)-5-pyrimidinyl]carbonyl]-]
